Measurements published in patent US5028605A, “8-alkylaminoimidazo(1,2-a)pyrazines and derivatives, their preparation and their application in therapy” (l'Universite de Montpellier I, priority 1986, dated 1991).

Tests used:
duodenum = assay: Antispasmodic activity: barium chloride-induced contraction of isolated rat duodenum (Magnus); conditions: for ED50 Theo/ED50 product (antispasmodic activity): barium chloride 10^-4 M, isolated rat duodenum, 37° C., mean of 5 to 6 determinations
Experimental: Fragments of duodenum are removed from male rats (200 g), fasted for 24 hours and killed by decapitation, and are mounted, after being washed, in a thermostatted (37° C.) isolated organ cell and maintained in survival in Tyrode's solution according to Magnus's classical technique.
The spasmogenic agent used is barium chloride (10^-4 M).
In the first instance, the spasmogenic agent is added to the nutrient bath and, as soon as the contraction of the organ reaches its maximum, the relaxant agent is added to the medium. Working in relation to a fixed concentration of barium chloride with variable concentrations of relaxant, the ED50 of the latter, capable of reducing the induced contraction by 50%, is determined.
The results expressed in Table IV below show the ratio ED50 Theo/ED50 product, established on the basis of the mean of the results of 5 to 6 determinations per product (ED50theophylline=8×10^-4 M).

uterine horns = assay: Uterine relaxant activity: spontaneous contractions of isolated rat uterine horn fragments; conditions: for ED50 Theo/ED50 product (uterine relaxant activity): isolated rat uterine horn, spontaneous contractions, mean of 5 to 10 determinations
Experimental: Female rats (150-180 g) are killed by decapitation 24 hours after the intraperitoneal administration of stilbestrol (0.1 mg/kg). The uterine horns are removed and fragments mounted in a thermostatted (37° C.) isolated organ cell and maintained in survival in oxygenated De Jalon's solution of composition (mM): NaCl (153.8); KCl (5.6); CaCl2 (2.16); NaHCO3 (1.8); dextrose (5.5). One end of the uterine fragment is maintained fixed, while the other is attached to a recording myograph under a tension of the order of 0.5 g. The spontaneous uterine contractions are recorded on a kymograph. The organ is left at rest for 30 minutes and washed three times. The test products are introduced directly into the bath after being dissolved in De Jalon's solution, and the activity measured (ED50) corresponds to the dose capable of reducing the magnitude of the spontaneous contractions by 50%.
The results expressed in Table V below show the ratio ED50 Theo/ED50 product, established on the basis of the mean of the results of 5 to 10 determinations per product. (ED50 theophylline=0.9×10^-3 M)

left atrium = assay: Cardiac activity: inotropic function, isolated electrically stimulated left atrium; set-up: species or system guinea pig; conditions: concentration producing increase in magnitude of 0.5 g
Text: (§1) Guinea pigs of both sexes weighing between 300 and 500 g are killed by decapitation. The hearts are rapidly removed and placed in an oxygenated environment (95% O2 -5% CO2) in Chenoweth-Koelle's solution of the following composition (mM): NaCl (120), KCl (5.63), CaCl2 (2.0), dextrose (9.7), MgCl2 (2.0), NaHCO3 (26.0). The right and left atria are then separated from the heart and mounted in an isolated organ cell. The right atrium beats spontaneously and the left atrium is electrically stimulated. The organs under a tension of 1 g are left at rest for two hours and washed every fifteen minutes.
(§2) The products are added directly to the nutrient bath. The right atrium is used for measuring the modifications of rate (chronotropic function) whereas the left atrium indicates the modifications brought about in the contractile force (inotropic function).
For the inotropic function, the concentration capable of producing an increase in magnitude of 0.5 g with respect to the basic contraction is measured.

mice = assay: Motor activity: spontaneous activity in mice (neurosedative effect); type: in vivo, mouse; conditions: male mice, 50 minutes
Experimental: The measurement of the neurosedative effect is based on the test of activity measurements in mice. […] Five minutes after the administration, the animals are placed in activity-measuring cages, which record their movements digitally by means of the interruption of beams of light. The results are recorded in Table IX and expressed as the percentage variation (increase or decrease ) in activity compared with the controls during a period of 50 minutes following the administration.

guinea pig trachea = assay: Isolated guinea pig trachea: anti-contractional activity against carbachol; conditions: for EC50 Theo/EC50 product (anti-contractional activity, trachea): carbachol 10^-4 M, isolated guinea pig trachea, mean of 5 to 6 determinations
Experimental: Guinea pigs of both sexes weighing on average 400 to 600 g are sacrificed, and the tracheas are removed and placed at 37° C. in an oxygenated environment (95% O2 -5% CO2) in Krebs fluid of the following composition (mM): NaCl (116), MgSO4 (1.2), KCl (3.7), CaCl2 (2.6), KH2 PO4 (2.2), NaHCO3 (24.9), glucose (10). The tracheal segments are then mounted horizontally between two hooks, one of which is fixed to the base of the isolated organ cell and the other is attached to a myograph under a tension of 0.5 g. The organ is left at rest for one hour and is subjected to four washes. The contraction-inducing reagent (carbachol) is added at a concentration (10^-4 M) greater than the concentration giving the maximum effect. After stabilization of the contractional effect, gradually increasing accumulative amounts of the test products are added to the cell. The bronchodilatory effect is measured as the percentage inhibition of the maximal contraction and EC50 represents the concentration inhibiting this concentration by 50%.

[1] = tested on: histamine-induced bronchoconstriction, guinea pigs; assay: Antibronchospastic activity: histamine-induced bronchospasm in anesthetized guinea pigs; type: in vivo, guinea pig; conditions: for ED50 Theo/ED50 product (bronchospasm induced in guinea pigs): intravenous, 30 seconds before histamine, mean of 5 to 8 determinations
Experimental: Guinea pigs of both sexes weighing between 400 and 600 g are anesthetized with ethyl carbamate ([…] i.p.). After tracheotomy, the animal is placed under artificial respiration at a constant flowrate (Palmer pump 1 m1/100 g×60/min). A take-off at the tracheal cannula enables the volume of air to be gaged at each inhalation by means of a Marey drum. Bronchospasm is induced by intraveneous (jugular) administration of histamine. For each animal, the dose of histamine (8 to 12 μg/kg) inducing an increase in the recording trace equal to double its initial value is determined. The dose adopted should provide three identical responses at intervals of 10 minutes.
The test product is administered intraveneously and then, 30 seconds later, histamine is administered again.

right atrium = assay: Cardiac activity: chronotropic function, isolated spontaneously beating right atrium; set-up: species or system guinea pig; conditions: concentration producing 20% increase in rate
Text: as §1, §2
For the chronotropic function, the concentration capable of producing a 20% increase in the basic value of the rate is determined.

Compound	ED50 Theo/ED50 product (antispasmodic activity) (duodenum)	ED50 Theo/ED50 product (uterine relaxant activity) (uterine horns)	ED Theo/ED Product, inotropic function (left atrium)	spontaneous activity - % variation compared with the controls, decrease (.dwnarw.) (mice; 55 μmol/kg intraperitoneally)	spontaneous activity - % variation compared with the controls, decrease (.dwnarw.) (mice; 166 μmol/kg intraperitoneally)	EC50 Theo/EC50 product (anti-contractional activity, trachea) (guinea pig trachea)	ED50 Theo/ED50 product (bronchospasm induced in guinea pigs) [1]	ED Theo/ED Product, chronotropic function (right atrium)	spontaneous activity - % variation compared with the controls, increase (.uparw.) (mice; 55 μmol/kg intraperitoneally)	EC50 (duodenum; Rattus norvegicus, reduces barium chloride-induced contraction by 50%, read-out: ED50 theophylline (antispasmodic))	EC50 (uterine horns; Rattus norvegicus, reduces magnitude of spontaneous contractions by 50%, read-out: ED50 theophylline (uterine relaxant))	spontaneous activity - % variation compared with the controls, increase (.uparw.) (mice; 166 μmol/kg intraperitoneally)	EC50 (guinea pig trachea; Cavia porcellus, 50% inhibition of maximal carbachol contraction, read-out: EC50 Theo (anti-contractional activity, trachea))	ED50 ([1]; Cavia porcellus, iv, read-out: ED50 Theo (bronchospasm induced in guinea pigs))
Nc1nc(Br)cn2ccnc12 [Compound 8, 8-amino-6-bromoimidazo[1,2-a]pyrazine]	32	3	10	53%	83%	11.3	4	2						
CCOC(=O)c1cn2ccnc(N)c2n1 [Compound 17, ethyl 8-aminoimidazo[1,2-a]pyrazine-2-carboxylate]	13	2.6	< 1		17%		1.1	< 1	28%					
Cn1c(=O)c2[nH]cnc2n(C)c1=O [theophylline, reference compound]									130%	800 µM	900 µM	170%	1000 µM	43 µmol/kg
CNc1nccn2c(Br)cnc12 [Compound 6, 3-Bromo-8-methylaminoimidazo[1,2-a]pyrazine]	32	9	5	25%	57%	12.5	2	6						
CNc1nc(Br)cn2ccnc12 [Compound 9, 6-bromo-8-methylaminoimidazo[1,2-a]pyrazine]	20	5.6	50	74%	83%	8.3	5.4	25						
CCNc1nc(Br)cn2ccnc12 [Compound 10, 6-bromo-8-ethylaminoimidazo[1,2-a]pyrazine]	40	7.2	4	13%	73%	5	2	15						
